Assay results published in US9529006B1, “Method for direct detection of lipid binding agents in membrane” (KING SAUD UNIVERSITY, priority 2015, dated 2016).
Where a SMILES comes first, the peptide text is derived from it. [ ]: non-standard residue; d: D form. Phe(ol) = N[C@H](CO)Cc1ccccc1; Aib = CC(C)(N)C(=O)O

How the values were obtained:
[1] = Electrophysiology, gA and Alm channel currents in lipid bilayer; details: for conductance events in channels in lipid bilayer: gA V=200 mV, Alm V=150 mV
Protocol: (§1) As defined herein, a liposome is a spherical vesicle having at least one lipid bilayer. The liposome can be used as a vehicle for administration of nutrients and pharmaceutical drugs. Liposomes can be prepared routinely by disrupting biological membranes (such as by sonication). Two different kinds of processes to address membrane effects of all three different classes of MAAs were developed. First, the electrophysiology (EP) trials were performed to record membrane currents across lipid bilayer membranes doped with AMPs (antimicrobial peptides) or CDs (chemotherapy drugs). This technique helps to detect the presence of any stable, semi-stable or transient structures that might be induced into the lipid bilayer membrane as a result of MAA-lipid coexistence. To understand the membrane effect of aptamers, fluorescence (FL) measurements on liposome bound aptamers were performed. This method helps to understand the general lipid membrane binding of aptamers.
The membrane effects of AMPs were tested using established electrophysiology technique. Here, gA (gramicidin A) monomer with 15 amino acids was used for constructing gA channels and Alm (alamethicin) monomers were used for constructing Alm channels in a bilayer constructed using lipid 1,2-Dioleoyl-sn-Glycero-3-Phosphocholine. For the membrane effects of CDs, planar lipid bilayers were formed by applying a lipid cocktail of Phosphoethanolamine: phosphatydyleserine: phosphatidylcholine (5:3:2, v/v/v)/n-decane using the painting method over a 150 μm septum of a bilayer cuvette. The aptamer-lipid binding aspects were addressed by preparing liposomes using liposome technology. The liposomes were prepared with 1,2-dipalmitoyl-sn-glycero-3-phosphatidylcholine (DPPC) and 1,2-dipalmitoyl-sn-glycero-3-phospho-L-serine (sodium salt) (DPPS). Buffer with the liposome-bound and unbound aptamers containing 6-carboxyfluorescein (6-FAM) fluorescent tag attached at the 3′ end of the DNA sequence was separated using standard binding assay. The solution with bound aptamers was then investigated for fluorescence quantification. The following examples will further illustrate the direct detection method (DDM).
Membrane currents across lipid bilayer membranes doped with antimicrobial peptides (AMPs) or chemotherapy drugs (CDs) were investigated. The pattern of the general time dependent ion pore conducting current fluctuations is MAA specific. The amplitude and stability of the current events are found to vary due to the differences in the structures of MAAs. Some ion pores conduct currents with constant amplitudes over a period of time considered as pore lifetime. While a few other pores are found to conduct currents with fluctuating amplitudes over their lifetimes.
The gA channel activity was recorded at V=200 mV and Alm at V=150 mV. Here IgA=29±2, 113±5, 243±9 and 386±10 pA respectively are the discrete current levels 0, 1, 2, 3, . . . , etc. in Alm channel. Traces representing gA and Alm channel activities in phospholipid bilayers were recorded at filter frequencies 2 kHz and 20 kHz, respectively. A lower filter frequency for traces representing gA channel activity is alright because of the channel's relatively higher stability. In (B) the point count plots of the current traces through gA and Alm channels peak at discrete values of conductance.
AMP gA is reported to induce conductance events that conducts constant current IgA pA over its lifetime τgA. At the formation and breaking of a gA channel the current undergoes transitions between 0→IgA pA and IgA→0 pA respectively. The current transitions between 0 ? IgA pA happen instantaneously that means current transitions take almost no time. Here, IgA is constant (˜in low range pA) for any gA channel but TO appears with all possible values within a range 0 to a very high value in ms order]. With varied number of amino acids in gA monomer the value of both IgA and τgA vary. Detailed analysis can be found in ref. [2-6]. […]

[2] = Electrophysiology, membrane currents across planar lipid bilayers doped with chemotherapy drugs; details: 90 μM, pH=5.7, V=100 mV
Protocol: The gA channel activity was recorded at V=200 mV and Alm at V=150 mV. […] Traces representing gA and Alm channel activities in phospholipid bilayers were recorded at filter frequencies 2 kHz and 20 kHz, respectively.

[3] = Fluorescence measurements on liposome bound aptamers, liposomes containing PS; assay type: binding; details: liposomes containing 10% PS (DPPC and DPPS 9:1); 6-FAM tagged aptamer
Protocol: as §1, with “This technique helps to detect the presence of any stable, semi-stable or transient structures that might be induced into the lipid bilayer membrane as a result of MAA-lipid coexistence.” left out, “This method helps to understand the general lipid membrane binding of aptamers.” left out
(§2) The membrane effects of AMPs were tested using established electrophysiology technique. […] The solution with bound aptamers was then investigated for fluorescence quantification. […]
(§3) The aptamer-lipid binding aspects were addressed by preparing liposomes using known liposome technology. […] The solution with bound aptamers was then investigated for fluorescence quantification.
(§4) Binding affinity and selectivity of designed DNA aptamers were measured. […] The fluorescence (FL) measured in relative fluorescence units (RFU) is plotted against the [DNA] aptamer concentration. […]

[4] = Fluorescence measurements on liposome bound aptamers, liposome containing only PC; assay type: binding; details: liposomes containing no PS
Protocol: as §1, with “This technique helps to detect the presence of any stable, semi-stable or transient structures that might be induced into the lipid bilayer membrane as a result of MAA-lipid coexistence.” left out, “This method helps to understand the general lipid membrane binding of aptamers.” left out
as §2, §3, §4

## CC(=O)NC(C)(C)C(=O)N1CCC[C@H]1C(=O)NC(C)(C)C(=O)N[C@@H](C)C(=O)NC(C)(C)C(=O)N[C@@H](C)C(=O)N[C@@H](CCC(N)=O)C(=O)NC(C)(C)C(=O)N[C@H](C(=O)NC(C)(C)C(=O)NCC(=O)N[C@@H](CC(C)C)C(=O)NC(C)(C)C(=O)N1CCC[C@H]1C(=O)N[C@H](C(=O)NC(C)(C)C(=O)NC(C)(C)C(=O)N[C@@H](CCC(=O)O)C(=O)N[C@@H](CCC(N)=O)C(=O)N[C@H](CO)Cc1ccccc1)C(C)C)C(C)C [Alm, alamethicin] (Ac-[Aib]P[Aib]A[Aib]AQ[Aib]V[Aib]GL[Aib]PV[Aib][Aib]EQ[Phe(ol)])
[1]; V=150 mV, level 0
  discrete current level 0 in Alm channel: 29±2 pA
[1]; V=150 mV, level 1
  discrete current level 1 in Alm channel: 113±5 pA
[1]; V=150 mV, level 2
  discrete current level 2 in Alm channel: 243±9 pA
[1]; V=150 mV, level 3
  discrete current level 3 in Alm channel: 386±10 pA
[1]
  conductance events in channels in lipid bilayer: rectangular-shape conductance events

## COc1c(O[C@@H]2O[C@H](CO)[C@@H](O)[C@H](O)[C@H]2O)cc2c(c1OC)-c1ccc(SC)c(=O)cc1[C@@H](NC(C)=O)CC2 [TCC, thiocolchicoside]
[2]
  conductance events induced in lipid bilayer: triangular-shaped conductance events

## SIIAp1: designed DNA aptamer, sequence (5′ → 3′) CAGAAAAAAAC (DNA, backbone and methylation of C not given here; further chemistry not fully specified)
[3]
  binding of aptamer with liposomes containing PS (fluorescence, RFU vs [DNA]): selective binding
[4]
  binding of aptamer with liposome containing only PC (fluorescence): low non-specific binding

## SIIAp2: designed DNA aptamer, sequence (5′ → 3′) CAGAAAAAAAT (DNA, backbone and methylation of C not given here; further chemistry not fully specified)
[3]
  binding of aptamer with liposomes containing PS (fluorescence, RFU vs [DNA]): selective binding

## gramicidin A [gA]
[1]
  conductance events in channels in lipid bilayer: rectangular-shape conductance events
